Patent publication EP4707280A1, “1,4-CINEOLE DERIVATIVE AND INTERMEDIATE THEREOF, HERBICIDE CONTAINING SAID DERIVATIVE AS ACTIVE INGREDIENT, METHOD FOR USING HERBICIDE, AND METHOD FOR PREPARING AGROCHEMICAL COMPOSITION” (HOKKO CHEMICAL INDUSTRY CO., LTD., priority 2023, dated 2024)

Experiments:
Type in all cases: in vivo
Echinochloa crus-galli [1] = assay: Test Example 8: herbicidal effect test by stem and leaf treatment in upland field (low dose); conditions: Echinochloa crus-galli; 7.5 g per 10 ares; sprayed seven days after sowing, upland soil; 14 days after application; read-out: weed inhibition rate
Monochoria vaginalis = assay: Test Example 1: herbicidal effect test by soil application in paddy rice; conditions: 120 g active ingredient per 10 ares, applied immediately after sowing, flooded pots, 14 days after application; for pest or weed control at 1200 g/ha: Pontederia vaginalis, soil, 336 h, read-out: weed inhibition rate
How it was run: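 Inhibition rate (%) read 14 days after treatment, duplicate pots. Water-diluted emulsifiable concentrate was applied by dropper at 120 g active ingredient/10 ares right after sowing. Seeds (30 per species, 0–1 cm deep) went into puddled paddy soil kept flooded at about 3 cm in a greenhouse.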

Digitaria ciliaris [2] = assay: Test Example 3: herbicidal effect test by soil application in upland field; conditions: Digitaria ciliaris, 120 g per 10 ares, sprayed one day after sowing, 14 days after application, read-out: weed inhibition rate
How it was run: (§1)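 Weed inhibition (%) was assessed 14 days after treatment, in duplicate per concentration group. Seeds had been mixed into the upper 1 cm of upland alluvial loam, and the soil surface was sprayed one day later with the diluted emulsifiable concentrate at 120 g active ingredient per 10 ares.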

Echinochloa crus-galli [3] = assay: as above; conditions: Echinochloa crus-galli, 120 g per 10 ares, sprayed one day after sowing, 14 days after application, read-out: weed inhibition rate
How it was run: as §1

[4] = tested on: Echinochloa crus-galli var. formosensis; assay: Test Example 6: herbicidal effect test by application during growth period of paddy rice (low dose); conditions: Echinochloa crus-galli; 7.5 g per 10 ares; applied seven days after sowing, flooded pots; 14 days after application; read-out: weed inhibition rate
How it was run: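 Emulsifiable concentrate, water-diluted, dropped onto flooded paddy pots 7 days post-sowing at 7.5 g active ingredient/10 a. Greenhouse-grown weeds; percent inhibition scored at day 14 after treatment.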

Echinochloa crus-galli [5] = assay: Test Example 7: herbicidal effect test by soil application in upland field (low dose); conditions: Echinochloa crus-galli, 7.5 g per 10 ares, sprayed one day after sowing, 14 days after application, read-out: weed inhibition rate
How it was run: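 Read-out: weed inhibition rate (%) at 14 d post-treatment, duplicate pots per concentration. Seeds sown in the top 1 cm of upland alluvial loam; emulsifiable concentrate diluted in water and sprayed on the soil surface 1 d after sowing at 7.5 g a.i./10 a (100 L/10 a spray volume).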

Scirpus juncoides = assay: Test Example 1: herbicidal effect test by soil application in paddy rice; conditions: 120 g active ingredient per 10 ares, applied immediately after sowing, flooded pots, 14 days after application; for pest or weed control at 1200 g/ha: Schoenoplectiella juncoides, soil, 336 h, read-out: weed inhibition rate
How it was run: (§2)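 Flooded-pot paddy assay: sow at 0–1 cm, flood to about 3 cm, then apply diluted emulsifiable concentrate by dropper, 120 g a.i. per 10 ares; greenhouse-grown.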

[6] = tested on: Echinochloa crus-galli var. formosensis; assay: as above; conditions: 120 g active ingredient per 10 ares, applied immediately after sowing, flooded pots, 14 days after application; for pest or weed control at 1200 g/ha: Echinochloa crus-galli, soil, 336 h, read-out: weed inhibition rate
How it was run: as §2

Echinochloa crus-galli [7] = assay: Test Example 4: herbicidal effect test by stem and leaf treatment in upland field; conditions: Echinochloa crus-galli; 120 g per 10 ares; sprayed seven days after sowing, upland soil; 14 days after application; read-out: weed inhibition rate
Digitaria ciliaris [8] = assay: as above; conditions: Digitaria ciliaris; 120 g per 10 ares; sprayed seven days after sowing, upland soil; 14 days after application; read-out: weed inhibition rate
Digitaria ciliaris [9] = assay: Test Example 8: herbicidal effect test by stem and leaf treatment in upland field (low dose); conditions: Digitaria ciliaris; 7.5 g per 10 ares; sprayed seven days after sowing, upland soil; 14 days after application; read-out: weed inhibition rate

CC(C)C1C[C@]2(C)O[C@@]1(C(C)C)C[C@H]2OCc1ccccc1F (stereo partly drawn) [1-133, (1S,2R,4R)-2-[(2-fluorobenzyl)oxy]-4,5-isopropyl-1-methyl-7-oxabicyclo[2.2.1]heptane]
≥ 80%: inhibition at 75 g/ha (Echinochloa crus-galli [1]) | weed inhibition rate (Monochoria vaginalis) | inhibition at 1200 g/ha (Digitaria ciliaris [2]) | inhibition at 1200 g/ha (Echinochloa crus-galli [3]) | inhibition at 75 g/ha [4] | inhibition at 75 g/ha (Echinochloa crus-galli [5]) | weed inhibition rate (Scirpus juncoides) | weed inhibition rate [6] | inhibition at 1200 g/ha (Echinochloa crus-galli [7]) | inhibition at 1200 g/ha (Digitaria ciliaris [8])

CO[C@H]1C[C@]2(C)O[C@@]1(C(C)C)C[C@H]2OCc1ccccc1C [1-151, (1 S,2R,4R,5S)-4-isopropyl-5-methoxy-l-methyl-2-((2-methylbenzyl)oxy)-7-oxabicyclo[2.2.1]heptane]
≥ 80%: inhibition at 75 g/ha (Digitaria ciliaris [9]) | inhibition at 75 g/ha (Echinochloa crus-galli [1]) | inhibition at 1200 g/ha (Digitaria ciliaris [2]) | inhibition at 1200 g/ha (Echinochloa crus-galli [3]) | inhibition at 75 g/ha [4] | inhibition at 75 g/ha (Echinochloa crus-galli [5]) | weed inhibition rate (Scirpus juncoides) | weed inhibition rate [6] | inhibition at 1200 g/ha (Echinochloa crus-galli [7]) | inhibition at 1200 g/ha (Digitaria ciliaris [8])

CC(C)[C@]12C[C@@H](OCc3ccccc3F)[C@](C)(C[C@@H]1OCc1ccccc1F)O2 [1-603, (1S,2R,4R,5S)-2,5-bis[(2-fluorophenyl)methoxy]-1-methyl-4-isopropyl-7-oxabicyclo[2.2.1]heptane]
≥ 80%: pest or weed control at 1200 g/ha (Monochoria vaginalis) | inhibition at 1200 g/ha (Digitaria ciliaris [2]) | inhibition at 1200 g/ha (Echinochloa crus-galli [3]) | inhibition at 75 g/ha [4] | pest or weed control at 1200 g/ha (Scirpus juncoides) | pest or weed control at 1200 g/ha [6] | inhibition at 1200 g/ha (Echinochloa crus-galli [7]) | inhibition at 1200 g/ha (Digitaria ciliaris [8])

CC(C)[C@]12C[C@@H](OCc3cccc(Cl)c3)[C@](C)(C[C@@H]1Br)O2 [1-692, (1S,2R,4R,5S)-5-bromo-2-[(3-chlorophenyl)methoxy]-1-methyl-4-isopropyl-7-oxabicyclo[2.2.1]heptane]
≥ 80%: pest or weed control at 1200 g/ha (Monochoria vaginalis) | inhibition at 1200 g/ha (Digitaria ciliaris [2]) | inhibition at 1200 g/ha (Echinochloa crus-galli [3]) | inhibition at 75 g/ha [4] | inhibition at 75 g/ha (Echinochloa crus-galli [5]) | pest or weed control at 1200 g/ha (Scirpus juncoides) | pest or weed control at 1200 g/ha [6] | inhibition at 1200 g/ha (Echinochloa crus-galli [7]) | inhibition at 1200 g/ha (Digitaria ciliaris [8])

CC(C)[C@]12C[C@@H](OCc3ccccc3Br)[C@](C)(C[C@@H]1Br)O2 [1-694, (1S,2R,4R,5S)-5-bromo-2-[(2-bromophenyl)methoxy]-1-methyl-4-isopropyl-7-oxabicyclo[2.2.1]heptane]
≥ 80%: inhibition at 75 g/ha (Echinochloa crus-galli [1]) | pest or weed control at 1200 g/ha (Monochoria vaginalis) | inhibition at 1200 g/ha (Digitaria ciliaris [2]) | inhibition at 1200 g/ha (Echinochloa crus-galli [3]) | inhibition at 75 g/ha [4] | inhibition at 75 g/ha (Echinochloa crus-galli [5]) | pest or weed control at 1200 g/ha [6] | inhibition at 1200 g/ha (Echinochloa crus-galli [7])

CC(C)[C@]12C[C@@H](OCc3ccccc3F)[C@](C)(C[C@@H]1I)O2 [1-753, (1S,2R,4R,SS)-2-[(2-fluorophenyl)methoxy]-5-iodo-1-methyl-4-isopropyl-7-oxabicyclo[2.2.1]heptane]
≥ 80%: inhibition at 75 g/ha (Echinochloa crus-galli [1]) | weed inhibition rate (Monochoria vaginalis) | inhibition at 1200 g/ha (Digitaria ciliaris [2]) | inhibition at 1200 g/ha (Echinochloa crus-galli [3]) | inhibition at 75 g/ha [4] | inhibition at 75 g/ha (Echinochloa crus-galli [5]) | weed inhibition rate (Scirpus juncoides) | weed inhibition rate [6] | inhibition at 1200 g/ha (Echinochloa crus-galli [7])

COC1(OC)C[C@]2(C)O[C@@]1(C(C)C)C[C@H]2OCc1ccccc1F [1-935, (1R,4S,5R)-5-((2-fluorobenzyl)oxy)-1-isopropyl-2,2-dimethoxy-4-methyl-7-oxabicyclo[2.2.1]heptane]
≥ 80%: pest or weed control at 1200 g/ha (Monochoria vaginalis) | inhibition at 1200 g/ha (Digitaria ciliaris [2]) | inhibition at 1200 g/ha (Echinochloa crus-galli [3]) | inhibition at 75 g/ha [4] | pest or weed control at 1200 g/ha (Scirpus juncoides) | pest or weed control at 1200 g/ha [6] | inhibition at 1200 g/ha (Echinochloa crus-galli [7]) | inhibition at 1200 g/ha (Digitaria ciliaris [8])

C=CCO[C@H]1C[C@]2(C)O[C@@]1(C(C)C)C[C@H]2OCc1ccccc1F [1-1602, (1S,2R,4R,5S)-2-[(2-fluorophenyl)methoxy]-1-methyl-4-isopropyl-5-prop-2-enoxy-7-oxabicyclo[2.2.1]heptane]
≥ 80%: inhibition at 75 g/ha (Digitaria ciliaris [9]) | inhibition at 75 g/ha (Echinochloa crus-galli [1]) | inhibition at 1200 g/ha (Digitaria ciliaris [2]) | inhibition at 1200 g/ha (Echinochloa crus-galli [3]) | inhibition at 75 g/ha [4] | inhibition at 75 g/ha (Echinochloa crus-galli [5]) | pest or weed control at 1200 g/ha (Scirpus juncoides) | pest or weed control at 1200 g/ha [6] | inhibition at 1200 g/ha (Echinochloa crus-galli [7]) | inhibition at 1200 g/ha (Digitaria ciliaris [8])

CC(C)[C@]12C[C@@H](OCc3ccccc3Cl)[C@](C)(CC1=O)O2 [2-11, (1R,4S,5R)-5-((2-chlorobenzyl)oxy)-1-isopropyl-4-methyl-7-oxabicyclo[2.2.1]heptan-2-one]
≥ 80%: inhibition at 75 g/ha (Digitaria ciliaris [9]) | inhibition at 75 g/ha (Echinochloa crus-galli [1]) | inhibition at 1200 g/ha (Digitaria ciliaris [2]) | inhibition at 1200 g/ha (Echinochloa crus-galli [3]) | inhibition at 75 g/ha [4] | inhibition at 75 g/ha (Echinochloa crus-galli [5]) | pest or weed control at 1200 g/ha (Scirpus juncoides) | pest or weed control at 1200 g/ha [6] | inhibition at 1200 g/ha (Echinochloa crus-galli [7]) | inhibition at 1200 g/ha (Digitaria ciliaris [8])

CC(C)[C@]12C[C@@H](OCc3cc(F)ccc3F)[C@](C)(CC1=O)O2 [2-18, (1R,4S,5R)-5-((2,5-difluorobenzyl)oxy)-1-isopropyl-4-methyl-7-oxabicyclo[2.2.1]heptan-2-one]
≥ 80%: inhibition at 75 g/ha (Digitaria ciliaris [9]) | inhibition at 75 g/ha (Echinochloa crus-galli [1]) | inhibition at 1200 g/ha (Digitaria ciliaris [2]) | inhibition at 1200 g/ha (Echinochloa crus-galli [3]) | inhibition at 75 g/ha [4] | inhibition at 75 g/ha (Echinochloa crus-galli [5]) | pest or weed control at 1200 g/ha (Scirpus juncoides) | pest or weed control at 1200 g/ha [6] | inhibition at 1200 g/ha (Echinochloa crus-galli [7]) | inhibition at 1200 g/ha (Digitaria ciliaris [8])

Cc1ccccc1CO[C@@H]1C[C@@]2(C(C)C)C=C[C@]1(C)O2 [3-2, (1R,4S,5R)-4-methyl-5-[(2-methylphenyl)methoxy]-1-isopropyl-7-oxabicyclo[2.2.1]hept-2-ene]
≥ 80%: inhibition at 75 g/ha (Echinochloa crus-galli [1]) | pest or weed control at 1200 g/ha (Monochoria vaginalis) | inhibition at 1200 g/ha (Digitaria ciliaris [2]) | inhibition at 1200 g/ha (Echinochloa crus-galli [3]) | inhibition at 75 g/ha [4] | inhibition at 75 g/ha (Echinochloa crus-galli [5]) | pest or weed control at 1200 g/ha (Scirpus juncoides) | pest or weed control at 1200 g/ha [6] | inhibition at 1200 g/ha (Echinochloa crus-galli [7])

Cc1cccc(C)c1CO[C@@H]1C[C@@]2(C(C)C)C=C[C@]1(C)O2 [3-3, (1R,4S,5R)-5-[(2,6-dimethylphenyl)methoxy]-4-methyl-1-isopropyl-7-oxabicyclo[2.2.1]hept-2-ene]
≥ 80%: pest or weed control at 1200 g/ha (Monochoria vaginalis) | inhibition at 1200 g/ha (Digitaria ciliaris [2]) | inhibition at 1200 g/ha (Echinochloa crus-galli [3]) | inhibition at 75 g/ha [4] | pest or weed control at 1200 g/ha (Scirpus juncoides) | pest or weed control at 1200 g/ha [6] | inhibition at 1200 g/ha (Echinochloa crus-galli [7]) | inhibition at 1200 g/ha (Digitaria ciliaris [8])
